What was measured:
HCT-116 = assay: Cytotoxicity against human HCT116 cells by MTT assay; assay type: functional, cell-based
A549 = assay: Cytotoxicity against human A549 cells by MTT assay; assay type: functional, cell-based
NCI-H460 = assay: Cytotoxicity against human NCI-H460 cells by MTT assay; assay type: functional, cell-based
[1] = Inhibition of tubulin polymerization

| Compound | IC50 (HCT-116) | IC50 (A549) | IC50 (NCI-H460) | IC50 [1] |
| --- | --- | --- | --- | --- |
| CCOC(=O)Nc1ccc(S(=O)(=O)N2C[C@H](c3ccccc3)NC2=O)cc1CC | 70 nM | 60 nM | 70 nM | – |
| CCOC(=O)Nc1ccc(S(=O)(=O)N2C[C@H](c3ccccc3)NC2=O)cc1F | 5000 nM | 3800 nM | 4500 nM | – |
| CCc1cc(S(=O)(=O)N2C[C@H](c3ccccc3)NC2=O)ccc1NC(=O)OC | 200 nM | 250 nM | 300 nM | – |
| CC1[C@H](c2ccccc2)NC(=O)N1S(=O)(=O)c1ccc(NC(=O)c2ccc(N)cc2)c(Cl)c1 (some centres not stated) | > 10000 nM | > 10000 nM | > 10000 nM | – |
| CCc1cc(S(=O)(=O)N2C[C@H](c3ccccc3)NC2=O)ccc1NC(=O)NC(C)C | 60 nM | 100 nM | 70 nM | – |
| Nc1ccc(C(=O)Nc2ccc(S(=O)(=O)N3C[C@H](c4ccccc4)NC3=O)cc2Cl)cc1 | – | – | – | 5500 nM |
| CCOC(=O)Nc1c(C)cc(S(=O)(=O)N2C[C@H](c3ccccc3)NC2=O)cc1C | > 10000 nM | > 10000 nM | > 10000 nM | – |
| CCc1cc(S(=O)(=O)N2C[C@H](c3ccccc3)NC2=O)ccc1NC(=O)c1ccc(N)cc1 | 460 nM | 220 nM | 670 nM | – |
| CCc1cc(S(=O)(=O)N2C[C@H](c3ccccc3)NC2=O)ccc1NC(=O)OCC(C)C | 60 nM | 70 nM | 80 nM | – |
| CCOC(=O)Nc1ccc(S(=O)(=O)N2C[C@H](c3ccccc3)NC2=O)c(C)c1C | 350 nM | 300 nM | 300 nM | – |
| CCOC(=O)Nc1ccc(S(=O)(=O)N2C[C@H](c3ccccc3)NC2=O)cc1Cl | 200 nM | 20 nM | 20 nM | – |
| Cc1cc(S(=O)(=O)N2C(=O)N[C@@H](c3ccccc3)C2C)ccc1NC(=O)c1ccc([N+](=O)[O-])cc1 (some centres not stated) | > 10000 nM | > 10000 nM | > 10000 nM | – |
| CCc1cc(S(=O)(=O)N2C[C@H](c3ccccc3)NC2=O)ccc1NC(=O)OC(C)C | 60 nM | 60 nM | 60 nM | – |
| COc1cccc2c1C(=O)c1c(O)c3c(c(O)c1C2=O)C[C@@](O)(C(=O)CO)C[C@@H]3O[C@H]1C[C@H](N)[C@H](O)[C@H](C)O1 [DOXORUBICIN] | 400 nM | – | 456 nM | – |
| CCOC(=O)Nc1ccc(S(=O)(=O)N2C[C@H](c3ccccc3)NC2=O)cc1C | 70 nM | 50 nM | 70 nM | 6000 nM |
| CCc1cc(S(=O)(=O)N2C[C@H](c3ccccc3)NC2=O)ccc1NC(=O)NC1CCCCC1 | 300 nM | 500 nM | 300 nM | – |
| Cc1cc(S(=O)(=O)N2C(=O)N[C@@H](c3ccccc3)C2C)ccc1NC(=O)c1ccc(N)cc1 (some centres not stated) | > 10000 nM | > 10000 nM | > 10000 nM | – |
| CC1[C@H](c2ccccc2)NC(=O)N1S(=O)(=O)c1ccc(NC(=O)c2ccc([N+](=O)[O-])cc2)c(Cl)c1 (some centres not stated) | > 10000 nM | > 10000 nM | > 10000 nM | – |
| CCCOC(=O)Nc1ccc(S(=O)(=O)N2C[C@H](c3ccccc3)NC2=O)cc1CC | 60 nM | 60 nM | 60 nM | – |
| CCOC(=O)Nc1ccc(S(=O)(=O)N2C(=O)N[C@@H](c3ccccc3)C2C)cc1Cl (some centres not stated) | 5500 nM | 6000 nM | 6000 nM | – |
| CCc1cc(S(=O)(=O)N2C[C@H](c3ccccc3)NC2=O)ccc1NC(=O)c1ccc([N+](=O)[O-])cc1 | 500 nM | 700 nM | 800 nM | – |
| CCCCOC(=O)Nc1ccc(S(=O)(=O)N2C[C@H](c3ccccc3)NC2=O)cc1CC | 200 nM | 200 nM | 200 nM | – |
| CCOC(=O)Nc1ccc(S(=O)(=O)N2C(=O)N[C@@H](c3ccccc3)C2C)cc1C (some centres not stated) | 5500 nM | 5000 nM | 5000 nM | – |
